Source: the supplement of paper PMC10307832

Experiments:
Assay in all cases: relative viability (nuclei count vs DMSO), 5 days (fraction); higher = more cells survive
[1] = compound: C[C@@H](N)c1ccc(C(=O)Nc2ccnc3[nH]ccc23)cc1 + N=C(N)NC(=N)NCCc1ccccc1 [Phenformin] (partner 250 µM)
Method in brief: (§1)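 Cells from lung cancer lines were seeded into 1536-well plates and, one day later, dosed by pin tool. Treatments were either a single drug or a fixed dose of an anchor drug with five library-drug doses (not always all listed) in √10 steps. After 5 days, nuclei were stained in a one-step fixation (final 0.05% Triton X-100, 1% formaldehyde, 1 ug/ml Hoechst) and counted on 4× images, and relative viability is the treated-to-vehicle nuclei ratio, as the median of duplicate plates.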

Tanzisertib + Phenformin = compound: O[C@H]1CC[C@H](Nc2ncc3nc(Nc4c(F)cc(F)cc4F)n([C@H]4CCOC4)c3n2)CC1 [Tanzisertib] + N=C(N)NC(=N)NCCc1ccccc1 [Phenformin] (partner 250 µM)
Method in brief: as §1

[2] = compound: C[C@@H](N)c1ccc(C(=O)Nc2ccnc3[nH]ccc23)cc1 + O=C(c1cc(Cc2n[nH]c(=O)c3ccccc23)ccc1F)N1CCN(C(=O)C2CC2)CC1 [Olaparib] (partner 8 µM)
Method in brief: as §1

[3] = compound: C1CNCCC1C2=CC(=NN2)C3=CC=NC=C3 + CC(=O)c1c(C)c2cnc(Nc3ccc(N4CCNCC4)cn3)nc2n(C2CCCC2)c1=O [Palbociclib] (partner 0.5 µM)
Method in brief: as §1

H3255 was tested, and the relative viability ([1]; first compound 0.04 µM) was 0.396, the relative viability ([1]; first compound 0.1265 µM) was 0.332 and the relative viability ([1]; first compound 0.4 µM) was 0.337. For the same cell line, the relative viability ([1]; first compound 1.265 µM) was 0.348, the relative viability ([1]; first compound 4 µM) was 0.322 and the relative viability (Tanzisertib + Phenformin; first compound 0.08 µM) was 0.413. It also gave a relative viability (Tanzisertib + Phenformin; first compound 0.253 µM) of 0.371, a relative viability (Tanzisertib + Phenformin; first compound 0.8 µM) of 0.387 and a relative viability (Tanzisertib + Phenformin; first compound 2.53 µM) of 0.349. The relative viability (Tanzisertib + Phenformin; first compound 8 µM) was 0.231, the relative viability ([2]; first compound 0.04 µM) was 0.533 and the relative viability ([2]; first compound 0.1265 µM) was 0.607. It also gave a relative viability ([2]; first compound 0.4 µM) of 0.606, a relative viability ([2]; first compound 1.265 µM) of 0.558 and a relative viability ([2]; first compound 4 µM) of 0.48. For the same cell line, the relative viability ([3]; first compound 0.08 µM) was 0.309, the relative viability ([3]; first compound 0.8 µM) was 0.338 and the relative viability ([3]; first compound 2.53 µM) was 0.327. The relative viability ([3]; first compound 8 µM) was 0.346.
NCI-H2228 was tested, and the relative viability ([1]; first compound 0.04 µM) was 0.354, the relative viability ([1]; first compound 0.1265 µM) was 0.393 and the relative viability ([1]; first compound 0.4 µM) was 0.315. For the same cell line, the relative viability ([1]; first compound 1.265 µM) was 0.33, the relative viability ([1]; first compound 4 µM) was 0.357 and the relative viability (Tanzisertib + Phenformin; first compound 0.08 µM) was 0.399. For the same cell line, the relative viability (Tanzisertib + Phenformin; first compound 0.253 µM) was 0.279, the relative viability (Tanzisertib + Phenformin; first compound 0.8 µM) was 0.397 and the relative viability (Tanzisertib + Phenformin; first compound 2.53 µM) was 0.275. For the same cell line, the relative viability (Tanzisertib + Phenformin; first compound 8 µM) was 0.227, the relative viability ([2]; first compound 0.04 µM) was 0.535 and the relative viability ([2]; first compound 0.1265 µM) was 0.726. It also gave a relative viability ([2]; first compound 0.4 µM) of 0.714, a relative viability ([2]; first compound 1.265 µM) of 0.917 and a relative viability ([2]; first compound 4 µM) of 0.771. For the same cell line, the relative viability ([3]; first compound 0.08 µM) was 0.822, the relative viability ([3]; first compound 0.8 µM) was 0.991 and the relative viability ([3]; first compound 2.53 µM) was 0.787. For the same cell line, the relative viability ([3]; first compound 8 µM) was 0.863.
With CAL-12T the relative viability ([1]; first compound 0.04 µM) was 0.674, the relative viability ([1]; first compound 0.1265 µM) was 0.609 and the relative viability ([1]; first compound 0.4 µM) was 0.665. For the same cell line, the relative viability ([1]; first compound 1.265 µM) was 0.538, the relative viability ([1]; first compound 4 µM) was 0.56 and the relative viability (Tanzisertib + Phenformin; first compound 0.08 µM) was 0.517. It also gave a relative viability (Tanzisertib + Phenformin; first compound 0.253 µM) of 0.566, a relative viability (Tanzisertib + Phenformin; first compound 0.8 µM) of 0.625 and a relative viability (Tanzisertib + Phenformin; first compound 2.53 µM) of 0.628. It also gave a relative viability (Tanzisertib + Phenformin; first compound 8 µM) of 0.556, a relative viability ([2]; first compound 0.04 µM) of 0.702 and a relative viability ([2]; first compound 0.1265 µM) of 0.882. For the same cell line, the relative viability ([2]; first compound 0.4 µM) was 0.815, the relative viability ([2]; first compound 1.265 µM) was 0.841 and the relative viability ([2]; first compound 4 µM) was 0.724. For the same cell line, the relative viability ([3]; first compound 0.08 µM) was 0.535, the relative viability ([3]; first compound 0.8 µM) was 0.0415 and the relative viability ([3]; first compound 2.53 µM) was 0.566. It also gave a relative viability ([3]; first compound 8 µM) of 0.572.
Work on A-427 yielded a relative viability ([1]; first compound 0.04 µM) of 0.287, a relative viability ([1]; first compound 0.1265 µM) of 0.402 and a relative viability ([1]; first compound 0.4 µM) of 0.332. For the same cell line, the relative viability ([1]; first compound 4 µM) was 0.284, the relative viability (Tanzisertib + Phenformin; first compound 0.08 µM) was 0.394 and the relative viability (Tanzisertib + Phenformin; first compound 0.253 µM) was 0.411. The relative viability (Tanzisertib + Phenformin; first compound 0.8 µM) was 0.413, the relative viability (Tanzisertib + Phenformin; first compound 2.53 µM) was 0.326 and the relative viability (Tanzisertib + Phenformin; first compound 8 µM) was 0.22. For the same cell line, the relative viability ([2]; first compound 0.04 µM) was 0.698, the relative viability ([2]; first compound 0.1265 µM) was 0.817 and the relative viability ([2]; first compound 0.4 µM) was 0.762. The relative viability ([2]; first compound 1.265 µM) was 0.589, the relative viability ([2]; first compound 4 µM) was 0.649 and the relative viability ([3]; first compound 0.08 µM) was 0.486. For the same cell line, the relative viability ([3]; first compound 0.8 µM) was 0.559, the relative viability ([3]; first compound 2.53 µM) was 0.529 and the relative viability ([3]; first compound 8 µM) was 0.49.
Cell Line HARA has a relative viability ([1]; first compound 0.1265 µM) of 0.481, a relative viability ([1]; first compound 0.4 µM) of 0.495 and a relative viability ([1]; first compound 4 µM) of 0.355. The relative viability (Tanzisertib + Phenformin; first compound 0.08 µM) was 0.541, the relative viability (Tanzisertib + Phenformin; first compound 0.253 µM) was 0.401 and the relative viability (Tanzisertib + Phenformin; first compound 0.8 µM) was 0.451. It also gave a relative viability (Tanzisertib + Phenformin; first compound 2.53 µM) of 0.41, a relative viability (Tanzisertib + Phenformin; first compound 8 µM) of 0.333 and a relative viability ([2]; first compound 0.04 µM) of 1.02. For the same cell line, the relative viability ([2]; first compound 0.1265 µM) was 0.907, the relative viability ([2]; first compound 0.4 µM) was 1.32 and the relative viability ([2]; first compound 1.265 µM) was 0.966. It also gave a relative viability ([2]; first compound 4 µM) of 0.819, a relative viability ([3]; first compound 0.08 µM) of 0.284 and a relative viability ([3]; first compound 0.8 µM) of 0.282. For the same cell line, the relative viability ([3]; first compound 2.53 µM) was 0.281 and the relative viability ([3]; first compound 8 µM) was 0.28.
In the case of NCI-H1793, the relative viability ([1]; first compound 0.04 µM) is reported as 0.355, the relative viability ([1]; first compound 0.1265 µM) is reported as 0.424 and the relative viability ([1]; first compound 0.4 µM) is reported as 0.421. The relative viability ([1]; first compound 4 µM) was 0.393, the relative viability (Tanzisertib + Phenformin; first compound 0.08 µM) was 0.448 and the relative viability (Tanzisertib + Phenformin; first compound 0.253 µM) was 0.339. For the same cell line, the relative viability (Tanzisertib + Phenformin; first compound 0.8 µM) was 0.41, the relative viability (Tanzisertib + Phenformin; first compound 2.53 µM) was 0.379 and the relative viability (Tanzisertib + Phenformin; first compound 8 µM) was 0.367. For the same cell line, the relative viability ([2]; first compound 0.04 µM) was 1.09, the relative viability ([2]; first compound 0.1265 µM) was 0.999 and the relative viability ([2]; first compound 0.4 µM) was 1.04. It also gave a relative viability ([2]; first compound 4 µM) of 0.928, a relative viability ([3]; first compound 0.08 µM) of 0.296 and a relative viability ([3]; first compound 2.53 µM) of 0.329. For the same cell line, the relative viability ([3]; first compound 8 µM) was 0.364.
NCI-H1623 showed a relative viability ([1]; first compound 0.04 µM) of 0.637, a relative viability ([1]; first compound 0.1265 µM) of 0.528 and a relative viability ([1]; first compound 0.4 µM) of 0.415. For the same cell line, the relative viability ([1]; first compound 1.265 µM) was 0.29, the relative viability ([1]; first compound 4 µM) was 0.622 and the relative viability (Tanzisertib + Phenformin; first compound 0.08 µM) was 0.587. For the same cell line, the relative viability (Tanzisertib + Phenformin; first compound 0.253 µM) was 0.574, the relative viability (Tanzisertib + Phenformin; first compound 0.8 µM) was 0.639 and the relative viability (Tanzisertib + Phenformin; first compound 2.53 µM) was 0.572. For the same cell line, the relative viability (Tanzisertib + Phenformin; first compound 8 µM) was 0.551.
NCI-H2009 showed a relative viability ([1]; first compound 0.04 µM) of 0.473, a relative viability ([1]; first compound 0.1265 µM) of 0.531 and a relative viability ([1]; first compound 0.4 µM) of 0.468. For the same cell line, the relative viability ([1]; first compound 1.265 µM) was 0.443, the relative viability ([1]; first compound 4 µM) was 0.435 and the relative viability (Tanzisertib + Phenformin; first compound 0.08 µM) was 0.52. For the same cell line, the relative viability (Tanzisertib + Phenformin; first compound 0.253 µM) was 0.483, the relative viability (Tanzisertib + Phenformin; first compound 0.8 µM) was 0.515 and the relative viability (Tanzisertib + Phenformin; first compound 2.53 µM) was 0.593. It also gave a relative viability (Tanzisertib + Phenformin; first compound 8 µM) of 0.553, a relative viability ([2]; first compound 0.04 µM) of 0.657 and a relative viability ([2]; first compound 0.1265 µM) of 0.666. It also gave a relative viability ([2]; first compound 0.4 µM) of 0.611, a relative viability ([2]; first compound 1.265 µM) of 0.595 and a relative viability ([2]; first compound 4 µM) of 0.547. It also gave a relative viability ([3]; first compound 0.08 µM) of 0.123, a relative viability ([3]; first compound 0.8 µM) of 0.148 and a relative viability ([3]; first compound 2.53 µM) of 0.189. It also gave a relative viability ([3]; first compound 8 µM) of 0.238.
In the case of ABC-1, the relative viability ([1]; first compound 0.04 µM) is reported as 0.254, the relative viability ([1]; first compound 0.1265 µM) is reported as 0.262 and the relative viability ([1]; first compound 0.4 µM) is reported as 0.227. It also gave a relative viability ([1]; first compound 4 µM) of 0.243, a relative viability (Tanzisertib + Phenformin; first compound 0.08 µM) of 0.242 and a relative viability (Tanzisertib + Phenformin; first compound 0.253 µM) of 0.251. It also gave a relative viability (Tanzisertib + Phenformin; first compound 0.8 µM) of 0.226, a relative viability (Tanzisertib + Phenformin; first compound 2.53 µM) of 0.211 and a relative viability (Tanzisertib + Phenformin; first compound 8 µM) of 0.218. It also gave a relative viability ([2]; first compound 0.04 µM) of 0.511, a relative viability ([2]; first compound 0.1265 µM) of 0.752 and a relative viability ([2]; first compound 0.4 µM) of 0.942. The relative viability ([2]; first compound 1.265 µM) was 0.953, the relative viability ([2]; first compound 4 µM) was 0.693 and the relative viability ([3]; first compound 0.08 µM) was 0.468. It also gave a relative viability ([3]; first compound 0.8 µM) of 0.617, a relative viability ([3]; first compound 2.53 µM) of 0.733 and a relative viability ([3]; first compound 8 µM) of 0.76.
